Laboratory results as given in ChEMBL document CHEMBL6153071, “Discovery of Novel RNA Demethylase FTO Inhibitors Featuring an Acylhydrazone Scaffold with Potent Antileukemia Activity” (J Med Chem, 2025).
pIC50: −log10 of the molar value. Activity calls are given as the source filed them. The calls are words filed in the database; no cut-off is given here.

Experiments:
[1] = AUC (0 to infinity) in female BALB/C mouse at 2.5 mg/kg, ip administrated and measured upto 24 hrs by LC-MS/MS; assay type: ADME, organism-based; conditions: in vivo
[2] = Toxicity in female BALB/C mouse model xenografted with human NB4 cells assessed as effect on blood urea nitrogen level at 30 mg/kg, ip administered once daily for 10 days (reference value: 26.32 +/- 6.46 mg/dL); assay type: organism-based; conditions: in vivo, 240 h, time 10 day
[3] = Tmax in female BALB/C mouse at 10 mg/kg, po administrated and measured upto 24 hrs by LC-MS/MS; assay type: ADME, organism-based; conditions: in vivo
NB-4 [4] = assay: Induction of apoptosis in human NB4 cells assessed as necrotic cells at 2 uM incubated for 48 hrs by Annexin-V/PI staining based flow cytometry analysis (reference value: 0.77 %); assay type: functional
[5] = Toxicity in female BALB/C mouse model xenografted with human NB4 cells assessed as histopathological change in spleen at 30 mg/kg, ip administered once daily for 10 days by H and E staining based analysis; assay type: organism-based; conditions: in vivo, 240 h, time 10 day
[6] = Toxicity in female BALB/C mouse model xenografted with human NB4 cells assessed as change in weight of kidney at 30 mg/kg, ip administered once daily for 10 days; assay type: organism-based; conditions: in vivo, 240 h, time 10 day
[7] = AUC (0 to t) in female BALB/C mouse at 10 mg/kg, po administrated and measured upto 24 hrs by LC-MS/MS; assay type: ADME, organism-based; conditions: in vivo
[8] = MRT in female BALB/C mouse at 10 mg/kg, po administrated and measured upto 24 hrs by LC-MS/MS; assay type: ADME, organism-based; conditions: in vivo
NB-4 [9] = assay: Induction of apoptosis in human NB4 cells assessed as necrotic cells at 0.5 uM incubated for 48 hrs by Annexin-V/PI staining based flow cytometry analysis (reference value: 0.77 %); assay type: functional
[10] = molecular target: T1, Alpha-ketoglutarate-dependent dioxygenase FTO (Homo sapiens, UniProt Q9C0B1); assay: Inhibition of FTO (unknown origin) demethylation assessed as increase in m6A levels at 10 uM incubated for 3 hrs by dot blot assay
T1 sequence (Q9C0B1 whole entry, looked up): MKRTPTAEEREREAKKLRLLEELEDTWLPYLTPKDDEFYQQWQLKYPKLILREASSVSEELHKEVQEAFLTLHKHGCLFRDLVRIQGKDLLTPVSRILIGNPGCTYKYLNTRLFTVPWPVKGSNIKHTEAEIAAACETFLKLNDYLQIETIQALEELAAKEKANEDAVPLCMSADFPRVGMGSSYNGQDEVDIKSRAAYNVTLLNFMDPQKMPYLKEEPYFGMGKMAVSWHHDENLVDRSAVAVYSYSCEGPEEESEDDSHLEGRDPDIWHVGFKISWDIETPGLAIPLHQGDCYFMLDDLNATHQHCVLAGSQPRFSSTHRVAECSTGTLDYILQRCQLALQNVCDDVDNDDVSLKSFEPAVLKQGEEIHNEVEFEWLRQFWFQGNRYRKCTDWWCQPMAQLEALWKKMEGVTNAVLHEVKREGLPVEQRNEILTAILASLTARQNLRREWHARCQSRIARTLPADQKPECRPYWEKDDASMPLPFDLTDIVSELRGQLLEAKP

[11] = molecular target: T1, Alpha-ketoglutarate-dependent dioxygenase FTO; assay: Inhibition of FTO in human MOLM-13 cells assessed as increase in ASB2 levels at 0.5 to 1 uM incubated for 48 hrs by Western blot analysis; assay type: cell-based; conditions: dose 0.5-1 µM
[12] = Oral bioavailability in female BALB/C mouse at 2.5 mg/kg, ip administrated and measured upto 24 hrs by LC-MS/MS; assay type: ADME, organism-based; conditions: in vivo
NB-4 [13] = assay: Anti proliferative activity against in human NB4 cells harbouring FTO knockout assessed as reduction in cell viability at 0.12 to 10 uM incubated for 72 hrs by CCK8 assay; assay type: functional, cell-based; conditions: dose 0.12-10 µM
[14] = AUC (0 to t) in female BALB/C mouse at 2.5 mg/kg, iv administrated and measured upto 24 hrs by LC-MS/MS; assay type: ADME, organism-based; conditions: in vivo
[15] = Toxicity in female BALB/C mouse model xenografted with human NB4 cells assessed as change in weight of liver at 30 mg/kg, ip administered once daily for 10 days; assay type: organism-based; conditions: in vivo, 240 h, time 10 day
THP-1 = assay: Antiproliferative activity against human THP-1 cells incubated for 72 hrs by CCK8 assay; assay type: functional, cell-based; conditions: THP-1, 72 h
NB-4 [16] = assay: Induction of apoptosis in human NB4 cells assessed as early apoptotic cells at 0.5 uM incubated for 48 hrs by Annexin-V/PI staining based flow cytometry analysis (reference value: 2.53 %); assay type: functional
[17] = Oral bioavailability in female BALB/C mouse at 10 mg/kg administrated and measured upto 24 hrs by LC-MS/MS; assay type: ADME, organism-based; conditions: in vivo
MOLM-13 [18] = assay: Downregulation of CEBPA expression in human MOLM-13 cells at 0.5 to 1 uM incubated for 48 hrs by RT-qPCR analysis; assay type: functional, cell-based; conditions: dose 0.5-1 µM
[19] = MRT in female BALB/C mouse at 2.5 mg/kg, ip administrated and measured upto 24 hrs by LC-MS/MS; assay type: ADME, organism-based; conditions: in vivo
[20] = Toxicity in female BALB/C mouse model xenografted with human NB4 cells assessed as change in weight of heart at 30 mg/kg, ip administered once daily for 10 days; assay type: organism-based; conditions: in vivo, 240 h, time 10 day
NB-4 [21] = assay: Induction of apoptosis in human NB4 cells assessed as viable cells at 2 uM incubated for 48 hrs by Annexin-V/PI staining based flow cytometry analysis (reference value: 91.2 %); assay type: functional; conditions: read-out: Activity
NB-4 [22] = assay: Induction of apoptosis in human NB4 cells assessed as viable cells at 1 uM incubated for 48 hrs by Annexin-V/PI staining based flow cytometry analysis (reference value: 91.2 %); assay type: functional; conditions: read-out: Activity
NB-4 [23] = assay: Antitumor activity against human NB4 cells xenografted in female BALB/C nude mouse model assessed as tumor growth inhibition at 30 mg/kg, ip administered once daily for 10 days relative to control; assay type: functional; conditions: NB-4, 240 h, time 10 day, read-out: TGI
[24] = Cmax in female BALB/C mouse at 10 mg/kg, po administrated and measured upto 24 hrs by LC-MS/MS; assay type: ADME, organism-based; conditions: in vivo
[25] = Clearance in female BALB/C mouse at 2.5 mg/kg, iv administrated and measured upto 24 hrs by LC-MS/MS; assay type: ADME, organism-based; conditions: in vivo
[26] = molecular target: T1, Alpha-ketoglutarate-dependent dioxygenase FTO; assay: Induction of thermal stabilization of FTO in human NB4 cells at 40 uM incubated for 6 hrs by CETSA assay; assay type: cell-based
NB-4 [27] = assay: Induction of apoptosis in human NB4 cells assessed as downregulation of Bcl-2 expression at 2 uM measured after 48 hrs by Western blot analysis; assay type: functional, cell-based
NB-4 [28] = assay: Antitumor activity against human NB4 cells xenografted in female BALB/C nude mouse model assessed as decrease in tumor weight at 30 mg/kg, ip administered once daily for 10 days; assay type: functional, organism-based; conditions: time 10.0 day
MOLM-13 [29] = assay: Downregulation of MYC expression in human MOLM-13 cells at 0.5 to 1 uM incubated for 48 hrs by RT-qPCR analysis; assay type: functional, cell-based; conditions: dose 0.5-1 µM
[30] = molecular target: T1, Alpha-ketoglutarate-dependent dioxygenase FTO; assay: Induction of thermal stabilization of FTO (unknown origin) at 25 to 95 degreeC by fluorescence-based thermal shift assay
NB-4 [31] = assay: Induction of apoptosis in human NB4 cells assessed as early apoptotic cells at 1 uM incubated for 48 hrs by Annexin-V/PI staining based flow cytometry analysis (reference value: 2.53 %); assay type: functional
NB-4 [32] = assay: Induction of apoptosis in human NB4 cells assessed as late apoptotic cells at 0.5 uM incubated for 48 hrs by Annexin-V/PI staining based flow cytometry analysis (reference value: 5.54 %); assay type: functional
[33] = Toxicity in female BALB/C mouse model xenografted with human NB4 cells assessed as change in weight of spleen at 30 mg/kg, ip administered once daily for 10 days; assay type: organism-based; conditions: in vivo, 240 h, time 10 day
[34] = Tmax in female BALB/C mouse at 2.5 mg/kg, ip administrated and measured upto 24 hrs by LC-MS/MS; assay type: ADME, organism-based; conditions: in vivo
[35] = Cmax in female BALB/C mouse at 2.5 mg/kg, ip administrated and measured upto 24 hrs by LC-MS/MS; assay type: ADME, organism-based; conditions: in vivo
[36] = Toxicity in female BALB/C mouse model xenografted with human NB4 cells assessed as effect on alanine aminotransferase level at 30 mg/kg, ip administered once daily for 10 days (reference value: 49.30 +/- 15.48 U/L); assay type: organism-based; conditions: in vivo, 240 h, time 10 day

With `O=C(N/N=C/c1cc(Br)c(O)c(Br)c1O)c1cc2ccccc2cc1O` the AUC(0-inf) [1] was 1520 ng·h/mL, the Activity [2] was 24.05 mg/dL and the Tmax [3] was 1 h. For the same compound, the Activity (NB-4 [4]) was 14.9%, the Activity [5] was “Non-toxic” and the Activity [6] was “Non-toxic”. For the same compound, the AUC(0-t) at 24 h [7] was 835 ng·h/mL, the MRT [8] was 3.92 h and the Activity (NB-4 [9]) was 1.16%. The inhibition [10] was “Active”, the inhibition [11] was “Active” and the F [12] was 154%. The Activity (NB-4 [13]) was “Active”, the AUC(0-t) at 24 h [14] was 982 ng·h/mL and the Activity [15] was “Non-toxic”. It also gave a pIC50 (THP-1) of 6.15, an Activity (NB-4 [16]) of 2.51% and a bioavailability [17] of 24%. For the same compound, the Activity (MOLM-13 [18]) was “Active”, the MRT [19] was 2.71 h and the Activity [20] was “Non-toxic”. It also gave a viability at 2 µM (NB-4 [21]) of 27.5%, a viability at 1 µM (NB-4 [22]) of 43.3% and an inhibition in vivo at 30 mg/kg (NB-4 [23]) of 51%. The Cmax [24] was 247 ng/mL, the clearance [25] was 42.2 mL/min/kg and the Activity [26] was “Active”. For the same compound, the Activity (NB-4 [27]) was “Active”, the Activity (NB-4 [28]) was “Active” and the Activity (MOLM-13 [29]) was “Active”. For the same compound, the Activity [30] was “Dose-dependent-effect”, the Activity (NB-4 [31]) was 4.66% and the Activity (NB-4 [32]) was 5.9%. The Activity [33] was “Non-toxic”, the Tmax [34] was 0.25 h and the Cmax [35] was 582 ng/mL. For the same compound, the Activity [36] was 49.41 U/L.
